How the values were obtained:
[1] = (§1) The drug is tested on Z-026 corresponding to metagenome with ENA study accession number: PRJEB37062 and ENA sample accession number: ERS12561825 for biotransformation under anaerobic condition. The drug concentrations were measured over 9 timepoints collected between 0 and 24 hours of incubation by liquid-chromatography-coupled mass spectrometry (LC–MS); settings: 2 µM
[2] = as §1, with “Z-010” for “Z-026”, “ERS12561810” for “ERS12561825”; settings: 2 µM
[3] = (§2) The drug is tested on WLS-039 corresponding to human gut metagenome with ENA study accession number: PRJEB37062 and ENA sample accession number: ERS12561746 for biotransformation under anaerobic condition. The drug concentrations were measured over 9 timepoints collected between 0 and 24 hours of incubation by liquid-chromatography-coupled mass spectrometry (LC–MS); settings: 2 µM
[4] = as §2, with “WLS-082” for “WLS-039”, “ERS12561751” for “ERS12561746”; settings: 2 µM
[5] = as §2, with “WLS-090” for “WLS-039”, “ERS12561753” for “ERS12561746”; settings: 2 µM
[6] = human gut metagenome, 24 h, 2 µM
[7] = human gut metagenome, 24 h, 2 µM; remark: listed apart in the source
[8] = human gut metagenome, 24 h, 2 µM; remark: listed apart in the source
[9] = human gut metagenome, 24 h, 2 µM; remark: listed apart in the source
[10] = as §2, with “WLS-069” for “WLS-039”, “ERS12561748” for “ERS12561746”; settings: 2 µM
[11] = as §2, with “Z-024” for “WLS-039”, “pig” for “human”, “ERS12561823” for “ERS12561746”; settings: 2 µM
[12] = as §2, with “WLS-310” for “WLS-039”, “ERS12561785” for “ERS12561746”; settings: 2 µM
[13] = as §2, with “Z-011” for “WLS-039”, “mouse” for “human”, “ERS12561811” for “ERS12561746”; settings: 2 µM
[14] = as §1, with “Z-005” for “Z-026”, “ERS12561805” for “ERS12561825”; settings: 2 µM
[15] = as §2, with “WLS-220” for “WLS-039”, “ERS12561769” for “ERS12561746”; settings: 2 µM
[16] = as §2, with “WLS-027” for “WLS-039”, “ERS12561744” for “ERS12561746”; settings: 2 µM
[17] = human gut metagenome, 24 h, 2 µM; remark: listed apart in the source
[18] = human gut metagenome, 24 h, 2 µM; remark: listed apart in the source
[19] = as §2, with “WLS-052” for “WLS-039”, “ERS12561747” for “ERS12561746”; settings: 2 µM
[20] = as §2, with “Z-020” for “WLS-039”, “rabbit” for “human”, “ERS12561819” for “ERS12561746”; settings: 2 µM
Note: call rule not given here.

SMILES | Bacterial Biotransformation [1] | Bacterial Biotransformation [2] | Bacterial Biotransformation [3] | Bacterial Biotransformation [4] | Bacterial Biotransformation [5] | Bacterial Biotransformation [6] | Bacterial Biotransformation [7] | Bacterial Biotransformation [8] | Bacterial Biotransformation [9] | Bacterial Biotransformation [10] | Bacterial Biotransformation [11] | Bacterial Biotransformation [12] | Bacterial Biotransformation [13] | Bacterial Biotransformation [14] | Bacterial Biotransformation [15] | Bacterial Biotransformation [16] | Bacterial Biotransformation [17] | Bacterial Biotransformation [18] | Bacterial Biotransformation [19] | Bacterial Biotransformation [20]
Cc1ccccc1N1C(=O)c2cc(S(N)(=O)=O)c(Cl)cc2NC1C (stereo not given) [METOLAZONE] | Compound metabolized | Compound NOT metabolized | Compound NOT metabolized | Compound NOT metabolized | Compound metabolized | Compound NOT metabolized | Compound metabolized | Compound NOT metabolized | Compound NOT metabolized | Compound NOT metabolized | Compound NOT metabolized | Compound NOT metabolized | Compound NOT metabolized | Compound NOT metabolized | Compound metabolized | Compound NOT metabolized | Compound NOT metabolized | Compound NOT metabolized | Compound metabolized | Compound NOT metabolized
CN1CCc2c(c3ccccc3n2Cc2ccccc2)C1.CN1CCc2c(c3ccccc3n2Cc2ccccc2)C1.O=S(=O)(O)c1cccc2c(S(=O)(=O)O)cccc12 | Compound NOT metabolized | Compound NOT metabolized | Compound metabolized | Compound NOT metabolized | Compound metabolized | Compound NOT metabolized | Compound metabolized | Compound metabolized | Compound NOT metabolized | Compound NOT metabolized | Compound metabolized | Compound NOT metabolized | Compound NOT metabolized | Compound NOT metabolized | Compound metabolized | Compound metabolized | Compound NOT metabolized | Compound NOT metabolized | Compound NOT metabolized | Compound NOT metabolized
C[C@@H](CO)NC(=O)[C@@H]1C=C2c3cccc4[nH]cc(c34)C[C@H]2N(C)C1.O=C(O)/C=C\C(=O)O [ERGONOVINE MALEATE] | Compound NOT metabolized | Compound NOT metabolized | Compound metabolized | Compound metabolized | Compound metabolized | Compound NOT metabolized | Compound metabolized | Compound metabolized | Compound NOT metabolized | Compound metabolized | Compound NOT metabolized | Compound metabolized | Compound NOT metabolized | Compound NOT metabolized | Compound NOT metabolized | Compound metabolized | Compound NOT metabolized | Compound metabolized | Compound metabolized | Compound NOT metabolized
CN(C)C(=O)C(CCN1CCC(O)(c2ccc(Cl)cc2)CC1)(c1ccccc1)c1ccccc1 [LOPERAMIDE] | Compound NOT metabolized | Compound metabolized | Compound metabolized | Compound metabolized | Compound metabolized | Compound metabolized | Compound metabolized | Compound metabolized | Compound metabolized | Compound metabolized | Compound metabolized | Compound metabolized | Compound NOT metabolized | Compound metabolized | Compound metabolized | Compound metabolized | Compound NOT metabolized | Compound metabolized | Compound metabolized | Compound metabolized
O=c1[nH]c2ccccc2n1C1CCN(CCCC(c2ccc(F)cc2)c2ccc(F)cc2)CC1 [PIMOZIDE] | Compound NOT metabolized | Compound metabolized | Compound NOT metabolized | Compound metabolized | Compound metabolized | Compound metabolized | Compound metabolized | Compound metabolized | Compound NOT metabolized | Compound metabolized | Compound metabolized | Compound metabolized | Compound metabolized | Compound metabolized | Compound metabolized | Compound metabolized | Compound NOT metabolized | Compound NOT metabolized | Compound metabolized | Compound metabolized
CC(C)N(CCC(C(N)=O)(c1ccccc1)c1ccccn1)C(C)C.O=P(O)(O)O (stereo not given) [DISOPYRAMIDE PHOSPHATE] | Compound NOT metabolized | Compound NOT metabolized | Compound NOT metabolized | Compound NOT metabolized | Compound metabolized | Compound metabolized | Compound metabolized | Compound NOT metabolized | Compound NOT metabolized | Compound NOT metabolized | Compound NOT metabolized | Compound metabolized | Compound NOT metabolized | Compound NOT metabolized | Compound NOT metabolized | Compound NOT metabolized | Compound NOT metabolized | Compound NOT metabolized | Compound NOT metabolized | Compound NOT metabolized
CN(C)CCC=C1c2ccccc2C=Cc2ccccc21 [CYCLOBENZAPRINE] | Compound NOT metabolized | Compound metabolized | Compound metabolized | Compound metabolized | Compound metabolized | Compound metabolized | Compound metabolized | Compound metabolized | Compound NOT metabolized | Compound metabolized | Compound metabolized | Compound metabolized | Compound NOT metabolized | Compound NOT metabolized | Compound metabolized | Compound metabolized | Compound NOT metabolized | Compound metabolized | Compound metabolized | Compound NOT metabolized
CC(C)(C(=O)O)c1ccc(C(O)CCCN2CCC(C(O)(c3ccccc3)c3ccccc3)CC2)cc1 (stereo not given) [FEXOFENADINE] | Compound NOT metabolized | Compound NOT metabolized | Compound NOT metabolized | Compound NOT metabolized | Compound NOT metabolized | Compound NOT metabolized | Compound NOT metabolized | Compound NOT metabolized | Compound NOT metabolized | Compound NOT metabolized | Compound metabolized | Compound NOT metabolized | Compound NOT metabolized | Compound NOT metabolized | Compound NOT metabolized | Compound NOT metabolized | Compound NOT metabolized | Compound NOT metabolized | Compound NOT metabolized | Compound NOT metabolized

Reference: ChEMBL document CHEMBL5724914, “Linking interpersonal differences in gut microbiota composition and drug biotransformation activity” (2024)
